Among the test systems are HT29 colon; IGROV1 ovarian; MCF7 breast; SK-MEL-5 melanoma; SK-OV-3 ovarian; OVCAR-3 ovarian; DU-145 prostate; NCI-H226 lung; OVCAR-8 ovarian; HCT-116 colon.
Common to all, as to assay: NCI tumour cell line growth inhibition, 48 h

Where “and” joins values, the source holds several entries; their conditions need not be identical. Equal values may be shown once.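 96-well plates; 48 h exposure; 5 concentrations. Endpoints by linear interpolation between flanking doses. Not reached: highest tested concentration assigned. At the GI50, growth is halved. TGI denotes the concentration required for complete inhibition of growth.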 Where a SMILES comes first, the peptide text is derived from it. [ ]: non-standard residue; d: D form. The star is where a group is joined. Phe(4-NO2) = N[CH](Cc1ccc([N+](=O)[O-])cc1)C(=O)O; Boc = CC(C)(C)OC(=O)*; OtBu = CC(C)(C)O*

For `COC(=O)C(Cc1ccccc1)NC(=O)CCCNC(=O)OCc1ccccc1` (stereo not drawn), the TGI is > 100 µM with HT29 colon; > 100 µM in the assay on IGROV1 ovarian; > 100 µM in the assay on MCF7 breast; 46.8 µM with SK-MEL-5 melanoma; > 100 µM in the assay with SK-OV-3 ovarian; > 100 µM in the assay with OVCAR-3 ovarian. The TGI in the assay on DU-145 prostate, with NCI-H226 lung, with OVCAR-8 ovarian and with HCT-116 colon was > 100 µM each time.
Take `CN1C/C(=C\c2ccccc2[N+](=O)[O-])C(=O)/C(=C/c2ccccc2[N+](=O)[O-])C1`: the GI50 in the assay with HT29 colon was 0.173 µM and 0.169 µM; in the assay with OVCAR-3 ovarian, 0.503 µM and 0.179 µM; in the assay with OVCAR-8 ovarian, 0.175 µM and 0.517 µM. The TGI was 0.325 µM and 0.409 µM in the assay with HT29 colon; 2.47 µM and 2.1 µM in the assay with IGROV1 ovarian; 1.94 µM and 3.04 µM in the assay with MCF7 breast; 2.31 µM and 2.91 µM in the assay on SK-MEL-5 melanoma; 12.8 µM and 10.8 µM in the assay on SK-OV-3 ovarian; 1.64 µM and 0.717 µM in the assay on OVCAR-3 ovarian. Besides, the TGI was 6.66 µM and 3.62 µM in the assay on DU-145 prostate; 16.3 µM with NCI-H226 lung; 0.328 µM and 1.85 µM with OVCAR-8 ovarian; 0.546 µM and 0.415 µM in the assay on HCT-116 colon.
For the compound `COc1cc(C2S/C(=C/c3ccccc3)C(=O)N2c2ccc(Cl)cc2)cc(OC)c1OC` (stereo not drawn), the TGI with HT29 colon was > 75.9 µM; in the assay with IGROV1 ovarian it was > 100 µM; with MCF7 breast, > 100 µM; in the assay with SK-MEL-5 melanoma, > 100 µM; in the assay with SK-OV-3 ovarian, > 100 µM; in the assay on OVCAR-3 ovarian, > 100 µM. For the same compound, the TGI with DU-145 prostate, in the assay on NCI-H226 lung, in the assay on OVCAR-8 ovarian and in the assay on HCT-116 colon was > 100 µM each time.
Turning to `CCOP(=O)(OCC)C(F)(F)CC1CCCCC1`, the TGI with HT29 colon, with IGROV1 ovarian, in the assay on MCF7 breast, in the assay on SK-MEL-5 melanoma, with SK-OV-3 ovarian and in the assay with OVCAR-3 ovarian was > 10 µM in each case. Moreover, the TGI in the assay on DU-145 prostate, in the assay on NCI-H226 lung, with OVCAR-8 ovarian and in the assay on HCT-116 colon was > 10 µM throughout.
In the case of `CSC1(SC)CCCCCCCCCCC1`, the TGI in the assay on HT29 colon is > 100 µM; with IGROV1 ovarian, > 100 µM; with MCF7 breast, 38.1 µM; in the assay on SK-MEL-5 melanoma it was > 100 µM; in the assay with SK-OV-3 ovarian it was > 100 µM; in the assay on OVCAR-3 ovarian, 72.7 µM. The TGI was > 100 µM in the assay with DU-145 prostate, > 100 µM in the assay on NCI-H226 lung, > 100 µM in the assay with OVCAR-8 ovarian and 31.4 µM in the assay on HCT-116 colon.
As for `CCCCCCCC(CC(=O)O)OC(=O)CC(CCCCCCC)OC1OC(C)C(O)C(O)C1OC1OC(C)C(O)C(O)C1O` (stereo not drawn), the TGI with HT29 colon, with IGROV1 ovarian, in the assay on MCF7 breast, in the assay with SK-MEL-5 melanoma, in the assay on SK-OV-3 ovarian and with OVCAR-3 ovarian was > 100 µM each time. The TGI in the assay with DU-145 prostate, in the assay on NCI-H226 lung, with OVCAR-8 ovarian and in the assay with HCT-116 colon was > 100 µM in each case.
With `c1csc(-c2ccc(-c3ccc(-c4cccs4)s3)s2)c1`, the TGI in the assay with HT29 colon, with IGROV1 ovarian, in the assay on MCF7 breast, in the assay on SK-MEL-5 melanoma, with SK-OV-3 ovarian and in the assay with OVCAR-3 ovarian was > 100 µM in each case. Further, the TGI in the assay with DU-145 prostate, with NCI-H226 lung, in the assay on OVCAR-8 ovarian and in the assay on HCT-116 colon was > 100 µM each time.
As to `CC(=O)c1nccc2c1c(C)nc1ccccc12`, the TGI in the assay on HT29 colon, in the assay on IGROV1 ovarian, with MCF7 breast, in the assay on SK-MEL-5 melanoma, in the assay on SK-OV-3 ovarian and in the assay with OVCAR-3 ovarian was > 100 µM in each case. For the same compound, the TGI in the assay with DU-145 prostate was > 100 µM; in the assay with NCI-H226 lung, 67.9 µM; in the assay with OVCAR-8 ovarian it was > 100 µM; in the assay with HCT-116 colon, > 100 µM.
In the case of `O=C(O)c1ccc(Nc2cnc3ccc(C(F)(F)F)cc3n2)cc1`, the TGI in the assay on HT29 colon was 33.6 µM; with IGROV1 ovarian, 28.5 µM; with MCF7 breast, > 100 µM; in the assay on SK-MEL-5 melanoma, 32 µM; in the assay with SK-OV-3 ovarian, > 100 µM; in the assay on OVCAR-3 ovarian it was 98.1 µM. Further, the TGI turned out to be 69.5 µM in the assay on DU-145 prostate, 29.4 µM with NCI-H226 lung, 41.2 µM in the assay with OVCAR-8 ovarian and 37.6 µM in the assay on HCT-116 colon.
Take `N#Cc1nnc2c3c(-c4ccc(Cl)cc4)c(C#N)c(=O)[nH]c3nn2c1N`: the TGI amounted to 21.2 µM in the assay with HT29 colon; 9.65 µM with IGROV1 ovarian; 16.3 µM in the assay on MCF7 breast; 19.1 µM with SK-MEL-5 melanoma; 18.2 µM in the assay on SK-OV-3 ovarian; 8.08 µM with OVCAR-3 ovarian. Further, the TGI stood at 16.8 µM in the assay on DU-145 prostate, 32.6 µM with NCI-H226 lung, 14 µM in the assay on OVCAR-8 ovarian and 15.9 µM with HCT-116 colon.
For `CC1=CC(c2ccccc2)n2c(nc3cc4ccccc4cc32)N1` (stereo not drawn), the TGI in the assay on HT29 colon, in the assay on IGROV1 ovarian, in the assay on MCF7 breast, with SK-MEL-5 melanoma, in the assay with SK-OV-3 ovarian and with OVCAR-3 ovarian was > 100 µM in each case. In addition, the TGI in the assay on DU-145 prostate, in the assay with NCI-H226 lung, in the assay on OVCAR-8 ovarian and in the assay with HCT-116 colon was > 100 µM each time.
For the compound `COc1ccc(C[C@H]2COC(=O)[C@@H]2Cc2cc(OC)c(OC)c(OC)c2)cc1OC`, the TGI in the assay with HT29 colon was > 100 µM; in the assay on IGROV1 ovarian, > 100 µM; in the assay with MCF7 breast it was > 100 µM; in the assay with SK-MEL-5 melanoma, > 74.4 µM; in the assay on SK-OV-3 ovarian, > 100 µM; with OVCAR-3 ovarian it was > 100 µM. The TGI with DU-145 prostate, in the assay with NCI-H226 lung, in the assay on OVCAR-8 ovarian and in the assay with HCT-116 colon was > 100 µM throughout.
Turning to `CC(C)[Si]1(C(C)C)OCC2OC(n3cnc4c(N)ncnc43)C(N)C2O[Si](C(C)C)(C(C)C)O1` (stereo not drawn), the TGI was 26.9 µM with HT29 colon; 43.3 µM with IGROV1 ovarian; 8.56 µM in the assay with MCF7 breast; 9.01 µM in the assay with SK-MEL-5 melanoma; > 53.7 µM in the assay on SK-OV-3 ovarian; 20.6 µM in the assay on OVCAR-3 ovarian. Besides, the TGI in the assay with DU-145 prostate was found to be 31.4 µM; in the assay with NCI-H226 lung, 25.8 µM; in the assay with OVCAR-8 ovarian it was 25.1 µM; in the assay with HCT-116 colon, 16.9 µM.
For `COC(=O)C(Cc1ccc([N+](=O)[O-])cc1)NC(=O)C(CC(=O)OC(C)(C)C)NC(=O)OC(C)(C)C` (stereo not drawn) (Boc-Asp(OtBu)-[Phe(4-NO2)]-OMe; configuration not given here), the TGI in the assay on HT29 colon, in the assay with IGROV1 ovarian, in the assay on MCF7 breast, with SK-MEL-5 melanoma, with SK-OV-3 ovarian and with OVCAR-3 ovarian was > 100 µM in each case. Further, the TGI with DU-145 prostate, in the assay on NCI-H226 lung, with OVCAR-8 ovarian and in the assay with HCT-116 colon was > 100 µM in each case.
Turning to `CN(Cc1nc2c(N)nc(N)nc2nc1N)c1ccc(C(=O)NC(CCC(=O)O)C(=O)O)cc1` (stereo not drawn), the TGI with HT29 colon, with IGROV1 ovarian, in the assay with MCF7 breast, in the assay on SK-MEL-5 melanoma, in the assay with SK-OV-3 ovarian and in the assay with OVCAR-3 ovarian was > 100 µM throughout. The TGI with DU-145 prostate, in the assay on NCI-H226 lung, with OVCAR-8 ovarian and in the assay with HCT-116 colon was > 100 µM throughout.
For the compound `COc1ccc(S(=O)(=O)Nc2ccc(-c3csc(N4C(=O)/C(=C/C=C\c5ccccc5)N=C4c4ccccc4)n3)cc2)cc1Cl`, the TGI in the assay with HT29 colon is > 100 µM; in the assay with IGROV1 ovarian it was 56.5 µM; with MCF7 breast, > 100 µM; in the assay on SK-MEL-5 melanoma, > 100 µM; in the assay with SK-OV-3 ovarian, > 100 µM; with OVCAR-3 ovarian, > 100 µM. The TGI in the assay with DU-145 prostate was 91.6 µM; in the assay on NCI-H226 lung, > 100 µM; in the assay with OVCAR-8 ovarian, 88.4 µM; in the assay on HCT-116 colon it was 68.5 µM.
Regarding `C=C1C(=O)O[C@H]2C(=O)[C@H](C)CCC[C@@](C)(O)/C=C\C[C@@]3(C)O[C@@H]3C[C@@H]12`, the TGI with HT29 colon is 28.4 µM; in the assay with IGROV1 ovarian, 41.6 µM; with MCF7 breast, 37.5 µM; with SK-MEL-5 melanoma it was 29 µM; in the assay on SK-OV-3 ovarian it was > 100 µM; with OVCAR-3 ovarian, 24.3 µM. The TGI with DU-145 prostate is 27.6 µM; in the assay with NCI-H226 lung, > 100 µM; in the assay on OVCAR-8 ovarian, 48 µM; with HCT-116 colon it was 20.2 µM.

(Values after PubChem BioAssay (NCI).)
